# Reference: EPA's ToxRefDB 2
# Columns and labels:
# rat [1] = conditions: Subchronic oral toxicity in rodents, fischer, Gavage/Intubation, dose end: 14 week, group: systemic
# rabbit = conditions: Prenatal developmental toxicity study, other, Injection, Intravenous, dose end: 18 GD
# mouse [2] = conditions: Subchronic oral toxicity in rodents, b6c3f1, Gavage/Intubation, dose end: 14 week, group: systemic
# mouse [3] = conditions: Prenatal developmental toxicity study, other, Injection, Intraperitoneal, dose end: 13 GD
# dog [4] = conditions: Sub-acute repeat dose toxicity; beagle; Injection; Intravenous; dose end: 4 week; group: systemic; systemic / clinical chemistry / alanine aminotransferase (alt/sgpt) / alanine aminotransferase (alt/sgpt) + systemic / clinical chemistry / …
# rat [5] = conditions: Combined chronic toxicity/carcinogenicity; fischer; Oral; Gavage/Intubation; dose end: 2 year; group: systemic; systemic / in life observation / body weight / body weight gain
# mouse [6] = conditions: Carcinogenicity, b6c3f1, Oral, Gavage/Intubation, dose end: 2 year, group: systemic
# rat [7] = conditions: Prenatal developmental toxicity study, sprague dawley, Oral, Feed, dose end: 15 GD
# rat [8] = conditions: Subchronic oral toxicity in rodents, fischer, Feed, dose end: 14 week, group: systemic
# mouse [9] = conditions: Prenatal developmental toxicity study, cd1, Oral, Water, dose end: 15 GD
# mouse [10] = conditions: Subchronic oral toxicity in rodents, b6c3f1, Feed, dose end: 14 week, group: systemic
# rat [11] = conditions: Prenatal developmental toxicity study, sprague dawley, Oral, Gavage/Intubation, dose end: 15 GD
# rat [12] = conditions: Combined chronic toxicity/carcinogenicity, sprague dawley, Oral, Feed, dose end: 104 week, group: systemic
# rat [13] = conditions: Multigenerational reproductive toxicity study, sprague dawley, Oral, Feed, dose end: 2 generation
# mouse [14] = conditions: Carcinogenicity; cd1; Oral; Feed; dose end: 97 week; group: systemic; systemic / in life observation / body weight / body weight + systemic / in life observation / body weight / body weight gain + systemic / …
# dog [15] = conditions: Subchronic oral toxicity in nonrodent, beagle, Feed, dose end: 90 day, group: systemic, systemic / clinical chemistry / albumin / albumin + systemic / clinical chemistry / calcium / calcium + systemic / clinical chemistry / …
# dog [16] = conditions: Chronic toxicity; beagle; Oral; Feed; dose end: 52 week; group: systemic; systemic / clinical chemistry / albumin / albumin + systemic / clinical chemistry / cholesterol / cholesterol + systemic / clinical …
# [17] = systemic / hematology / mean corpuscular hemoglobin (mch) / mean corpuscular hemoglobin (mch)
# [18] = group: developmental, developmental / developmental malformation / bone / [other] + developmental / developmental malformation / bone / supernumerary + …
# [19] = group: maternal, reproductive / reproductive performance / aborted / aborted + systemic / in life observation / body weight / body weight + systemic / in …
# [20] = systemic / in life observation / mortality / mortality + systemic / pathology microscopic / liver / glycogen deposition + systemic / …
# [21] = systemic / pathology microscopic / liver / glycogen deposition
# [22] = group: developmental, developmental / developmental malformation / general / [other] + developmental / developmental malformation / limb / micromelia + …
# [23] = group: developmental, developmental / developmental malformation / paw / digit / ectrodactyly
# [24] = group: maternal, reproductive / reproductive performance / resorptions / resorptions + reproductive / offspring survival early / dead fetuses / dead fetuses
# [25] = systemic / in life observation / body weight / body weight
# [26] = systemic / in life observation / body weight / body weight + systemic / in life observation / clinical signs / hyperactivity
# [27] = group: developmental, systemic / in life observation / body weight / fetal weight
# [28] = group: maternal, reproductive / offspring survival early / litter size / litter size + systemic / in life observation / body weight / body weight gain + …
# [29] = group: maternal, systemic / in life observation / water consumption / water consumption
# [30] = systemic / hematology / mean corpuscular (cell) volume (mcv) / mean corpuscular (cell) volume (mcv) + systemic / hematology / mean …
# [31] = systemic / hematology / neutrophils / neutrophils
# [32] = group: maternal, reproductive / reproductive performance / resorptions / resorptions + systemic / in life observation / body weight / body weight gain + …
# [33] = systemic / in life observation / body weight / body weight + systemic / in life observation / body weight / body weight gain
# [34] = systemic / in life observation / body weight / body weight + systemic / in life observation / body weight / body weight gain + systemic / …
# [35] = group: developmental, developmental / developmental malformation / bone / incomplete ossification
# [36] = group: developmental, developmental / developmental malformation / bone / incomplete ossification + developmental / developmental malformation / bone / short …
# [37] = group: maternal, systemic / in life observation / body weight / body weight gain + systemic / in life observation / clinical signs / [other] + systemic / in …
# [38] = systemic / hematology / erythrocyte (rbc) count differential / erythrocyte (rbc) + systemic / hematology / hematocrit (hct) / hematocrit (…
# [39] = group: offspring, systemic / in life observation / body weight / offspring (pup) weight + systemic / in life observation / body weight / offspring (pup) …
# [40] = group: parental, systemic / in life observation / body weight / body weight gain
# [41] = group: parental, systemic / in life observation / body weight / body weight gain + systemic / in life observation / body weight / body weight + systemic / in…
structure (smiles),measurement,setting,value
Cn1c(=O)c2[nH]cnc2n(C)c1=O [Theophylline],LEL,rat [1]; [17],37.5 mg/kg/day
same,NEL,rat [1]; [17],< 37.5 mg/kg/day
same,LOAEL,rat [1]; systemic / pathology microscopic / artery (general) / polyarteritis + systemic / hematology / mean corpuscular (cell) volume (mcv) / mean …,150 mg/kg/day
same,NOAEL,rat [1]; systemic / pathology microscopic / artery (general) / polyarteritis + systemic / in life observation / body weight / body weight gain + …,75 mg/kg/day
same,LEL,"rabbit; group: developmental, developmental / developmental malformation / bone / [other]",30 mg/kg/day
same,LOAEL,rabbit; [18],> 60 mg/kg/day
same,NEL,rabbit; [18],15 mg/kg/day
same,NOAEL,rabbit; [18],≥ 60 mg/kg/day
same,LOAEL,rabbit; [19],> 60 mg/kg/day
same,NEL,rabbit; [19],15 mg/kg/day
same,NOAEL,rabbit; [19],≥ 60 mg/kg/day
same,LEL,"rabbit; group: maternal, systemic / urinalysis / volume / volume",30 mg/kg/day
same,LOAEL,mouse [2]; [20],> 300 mg/kg/day
same,NOAEL,mouse [2]; [20],≥ 300 mg/kg/day
same,LEL,mouse [2]; [21],75 mg/kg/day
same,NEL,mouse [2]; [21],< 75 mg/kg/day
same,LOAEL,mouse [3]; [22],> 200 mg/kg/day
same,NOAEL,mouse [3]; [22],≥ 200 mg/kg/day
same,LEL,mouse [3]; [23],100 mg/kg/day
same,NEL,mouse [3]; [23],< 100 mg/kg/day
same,NEL,"mouse [3]; group: maternal, reproductive / reproductive performance / resorptions / resorptions",150 mg/kg/day
same,LEL,mouse [3]; [24],200 mg/kg/day
same,LOAEL,mouse [3]; [24],> 200 mg/kg/day
same,NOAEL,mouse [3]; [24],≥ 200 mg/kg/day
same,LEL,dog [4],35 mg/kg/day
same,LOAEL,dog [4],> 70 mg/kg/day
same,NEL,dog [4],20 mg/kg/day
same,NOAEL,dog [4],≥ 70 mg/kg/day
same,LEL,rat [5],7.5 mg/kg/day
same,LOAEL,rat [5],7.5 mg/kg/day
same,NEL,rat [5],< 7.5 mg/kg/day
same,NOAEL,rat [5],< 7.5 mg/kg/day
same,LEL,mouse [6]; [25],25 mg/kg/day
same,LOAEL,mouse [6]; [25],25 mg/kg/day
same,NEL,mouse [6]; [26],7.5 mg/kg/day
same,NOAEL,mouse [6]; [26],7.5 mg/kg/day
same,LEL,rat [7]; [27],218 mg/kg/day
same,LOAEL,rat [7]; [27],> 259 mg/kg/day
same,NEL,rat [7]; [27],124 mg/kg/day
same,NOAEL,rat [7]; [27],≥ 259 mg/kg/day
same,LOAEL,rat [7]; [28],> 259 mg/kg/day
same,NOAEL,rat [7]; [28],≥ 259 mg/kg/day
same,LEL,rat [7]; [29],124 mg/kg/day
same,NEL,rat [7]; [29],< 124 mg/kg/day
same,LOAEL,rat [8]; [30],125 mg/kg/day
same,NOAEL,rat [8]; [30],75 mg/kg/day
same,LEL,rat [8]; [31],75 mg/kg/day
same,NEL,rat [8]; [31],< 75 mg/kg/day
same,LEL,mouse [9]; [27],372 mg/kg/day
same,LOAEL,mouse [9]; [27],> 396 mg/kg/day
same,NEL,mouse [9]; [27],282 mg/kg/day
same,NOAEL,mouse [9]; [27],≥ 396 mg/kg/day
same,LEL,mouse [9]; [32],372 mg/kg/day
same,LOAEL,mouse [9]; [32],> 396 mg/kg/day
same,NEL,mouse [9]; [32],282 mg/kg/day
same,NOAEL,mouse [9]; [32],≥ 396 mg/kg/day
same,LOAEL,mouse [10]; [33],175 mg/kg/day
same,NOAEL,mouse [10]; [33],< 175 mg/kg/day
same,LEL,mouse [10]; [34],175 mg/kg/day
same,NEL,mouse [10]; [34],< 175 mg/kg/day
CN(C)C(=S)SSC(=S)N(C)C [Thiram],LEL,rat [11]; [35],7.5 mg/kg/day
same,NEL,rat [11]; [35],< 7.5 mg/kg/day
same,LOAEL,rat [11]; [36],15 mg/kg/day
same,NOAEL,rat [11]; [36],7.5 mg/kg/day
same,LEL,rat [11]; [37],7.5 mg/kg/day
same,LOAEL,rat [11]; [37],7.5 mg/kg/day
same,NEL,rat [11]; [37],< 7.5 mg/kg/day
same,NOAEL,rat [11]; [37],< 7.5 mg/kg/day
same,LEL,rat [12]; [38],1.8 mg/kg/day
same,NEL,rat [12]; [38],< 1.8 mg/kg/day
same,LOAEL,rat [12]; systemic / in life observation / body weight / body weight gain,7.3 mg/kg/day
same,NOAEL,rat [12]; systemic / in life observation / body weight / body weight gain + systemic / clinical chemistry / glucose / glucose + systemic / hematology…,1.5 mg/kg/day
same,LEL,rat [13]; [39],4.9 mg/kg/day
same,LOAEL,rat [13]; [39],4.9 mg/kg/day
same,NEL,rat [13]; [39],1.7 mg/kg/day
same,NOAEL,rat [13]; [39],1.7 mg/kg/day
same,LEL,rat [13]; [40],4.7 mg/kg/day
same,LOAEL,rat [13]; [40],4.7 mg/kg/day
same,NEL,rat [13]; [41],1.6 mg/kg/day
same,NOAEL,rat [13]; [41],1.6 mg/kg/day
same,LEL,mouse [14],24 mg/kg/day
same,LOAEL,mouse [14],24 mg/kg/day
same,NEL,mouse [14],2.5 mg/kg/day
same,NOAEL,mouse [14],2.5 mg/kg/day
same,LEL,dog [15],2.26 mg/kg/day
same,LOAEL,dog [15],7.01 mg/kg/day
same,NEL,dog [15],< 2.26 mg/kg/day
same,NOAEL,dog [15],2.26 mg/kg/day
same,LEL,dog [16],0.84 mg/kg/day
same,LOAEL,dog [16],0.84 mg/kg/day
same,NEL,dog [16],< 0.84 mg/kg/day
same,NOAEL,dog [16],< 0.84 mg/kg/day
